Where two headings read alike, the source gives them in different places. No end group written: not given here.
Assays:
[1] = target: T1, DPP IV (Sus scrofa, UniProt P22411); assay: Degradation of GIP and analogues by DPP IV (HPLC); format: in vitro ADME; conditions: for resistance to in vitro degradation with DPP IV relative to native GIP: Example 3, summary of Table 1; for % Intact peptide remaining after time (h) / remaining at 2 h, 1 mmol/l / remaining at 4 h, 1 mmol/l / remaining at 8 h, 1 mmol/l / remaining at 24 h, 1 mmol/l: incubation with DPP IV; for % Intact peptide remaining after time (h): 0 h; for remaining at 2 h, 1 mmol/l / remaining at 4 h, 1 mmol/l / remaining at 8 h, 1 mmol/l / remaining at 24 h, 1 mmol/l: isolated enzyme dpp iv, pH 7.8, read-out: % Intact peptide remaining after time (h)
T1 construct: purchased Sigma (Poole, Dorset, UK)
Protocol: Degradation of GIP and Tyr^1-glucitol GIP by DPP IV. HPLC-purified GIP or Tyr^1-glucitol GIP were incubated at 37° C. with DPP-IV (5 mU) for various time periods in a reaction mixture made up to 500 μl with 50 mmol/l triethanolamine-HCl, pH 7.8 (final peptide concentration 1 mmol/l). Enzymatic reactions were terminated after 0, 2, 4 and 12 hours by addition of 5 μl of 10% (v/v) TFA/water. Samples were made up to a final volume of 1.0 ml with 0.12% (v/v) TFA and stored at −20° C. prior to HPLC analysis.
(§1) HPLC analysis of degraded GIP and Tyr^1-glucitol GIP. […] Using 0.1% (v/v) TFA in 70% acetonitrile/H20, the concentration of acetonitrile in the eluting solvent was raised from 0% to 31.5% over 15 min, to 38.5% over 30 minutes and from 38.5% to 70% over 5 minutes, using linear gradients. The absorbance was monitored at 206 nm and peak areas evaluated using a model 2221 LKB integrator. Samples recovered manually were concentrated using a Speed-Vac concentrator.
(§2) Electrospray ionization-mass spectrometry (ESI-MS) was carried out as described in Example 2. Degradation of GIP and novel GIP analogues by DPP IV and human plasma was carried out as described in Example 2.

[2] = Degradation of GIP and analogues by human plasma (HPLC); format: in vitro ADME; conditions: for % Intact peptide remaining after incubations with human plasma: 0 h; for remaining at 2 h, 20 µg/ml / remaining at 4 h, 20 µg/ml / remaining at 8 h, 20 µg/ml / remaining at 24 h, 20 µg/ml: human, plasma, read-out: % Intact peptide remaining after incubations with human plasma; for remaining at 2 h, 20 µg/ml: pH 7.8, 2 h; for remaining at 4 h, 20 µg/ml: pH 7.8, 4 h; for remaining at 8 h, 20 µg/ml: pH 7.8, 8 h; for effect of DPA on plasma degradation of the peptide: 24 hours in the presence of DPA
Protocol: Degradation of GIP and Tyr^1-glucitol GIP by human plasma. […] […] The reactions were terminated by addition of 5 μl of TFA and the final volume adjusted to 1.0 ml using 0.1% v/v TFA/water. Samples were centrifuged (13,000 g, 5 minutes) and the supernatant applied to a C-18 Sep-Pak cartridge (Millipore-Waters) which was previously primed and washed with 0.1% (v/v) TFA/water. […] The volume was adjusted to 1.0 ml with 0.12% (v/v) TFA/water prior to HPLC purification.
as §1, §2

[3] = test system: BRIN-BD11 cells; assay: Acute tests for insulin secretion from BRIN-BD11 cells; format: cell-based; conditions: 5.6 and 16.7 mM glucose, 10^-13 to 10^-8 M peptide
Protocol: Culture of insulin secreting cells. BRIN-BD11 cells were cultured in sterile tissue culture flasks (Corning, Glass Works, UK) using RPMI-1640 tissue culture medium containing 10% (v/v) foetal calf serum, 1% (v/v) antibiotics (100 U/ml penicillin, 0.1 mg/ml streptomycin) and 11.1 mM glucose. The cells were maintained at 37° C. in an atmosphere of 5% CO2 and 95% air using a LEEC incubator (Laboratory Technical Engineering, Nottingham, UK).
Acute tests for insulin secretion. Before experimentation, the cells were harvested from the surface of the tissue culture flasks with the aid of trypsin/EDTA (Gibco), seeded into 24-multiwell plates (Nunc, Roskilde, Denmark) at a density of 1.5×10^5 cells per well, and allowed to attach overnight at 37° C. Acute tests for insulin release were preceded by 40 minutes pre-incubation at 37° C. in 1.0 ml Krebs Ringer bicarbonate buffer (115 mM NaCl, 4.7 mM KCl, 1.28 mM CaCl2, 1.2 mM KH2PO4, 1.2 mM MgSO4, 10 mM NaHCO3, 5 g/l bovine serum albumin, pH 7.4) supplemented with 1.1 mM glucose. Test incubations were performed (n=12) at two glucose concentrations (5.6 mM and 16.7 mM) with a range of concentrations (10^−13 to 10^−8 M) of GIP or GIP analogues. After 20 minutes incubation, the buffer was removed from each well and aliquots (200 μl) were used for measurement of insulin by radioimmunoassay.

[4] = pH 7.8, 24 hours in the presence of DPA (diprotin A)

T1 sequence (P22411 whole entry): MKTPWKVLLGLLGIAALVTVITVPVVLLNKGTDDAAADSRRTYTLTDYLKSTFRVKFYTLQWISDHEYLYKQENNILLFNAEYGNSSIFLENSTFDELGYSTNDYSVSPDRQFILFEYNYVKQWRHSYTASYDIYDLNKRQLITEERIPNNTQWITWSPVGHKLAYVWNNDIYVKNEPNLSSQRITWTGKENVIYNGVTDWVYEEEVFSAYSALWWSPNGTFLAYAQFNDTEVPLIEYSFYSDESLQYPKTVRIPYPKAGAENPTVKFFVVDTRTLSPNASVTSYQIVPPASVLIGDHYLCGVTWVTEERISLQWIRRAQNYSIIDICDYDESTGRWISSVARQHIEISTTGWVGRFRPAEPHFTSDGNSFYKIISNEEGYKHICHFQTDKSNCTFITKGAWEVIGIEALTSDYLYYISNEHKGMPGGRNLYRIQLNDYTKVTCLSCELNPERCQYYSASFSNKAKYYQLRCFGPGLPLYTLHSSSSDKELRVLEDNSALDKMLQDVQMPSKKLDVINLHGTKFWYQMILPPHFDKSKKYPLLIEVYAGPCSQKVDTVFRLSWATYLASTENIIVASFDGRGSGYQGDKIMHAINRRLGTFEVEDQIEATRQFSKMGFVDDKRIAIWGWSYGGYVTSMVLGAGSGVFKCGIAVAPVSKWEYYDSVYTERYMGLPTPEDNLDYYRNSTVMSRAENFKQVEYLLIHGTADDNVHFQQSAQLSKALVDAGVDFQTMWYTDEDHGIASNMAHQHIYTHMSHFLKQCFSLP

Row | Compound | resistance to in vitro degradation with DPP IV relative to native GIP [1] | % Intact peptide remaining after time (h) [1] | remaining at 2 h, 1 mmol/l [1] | remaining at 4 h, 1 mmol/l [1] | remaining at 8 h, 1 mmol/l [1] | remaining at 24 h, 1 mmol/l [1] | % Intact peptide remaining after incubations with human plasma [2] | plasma degradation ([2]; Example 3, summary of Table 2) | remaining at 2 h, 20 µg/ml [2] | remaining at 4 h, 20 µg/ml [2] | remaining at 8 h, 20 µg/ml [2] | remaining at 24 h, 20 µg/ml ([2]; pH 7.8, 24 h) | remaining at 24 h, 20 µg/ml [2, 4] | insulin secretion from BRIN-BD11 cells [3] | effect of DPA on plasma degradation of the peptide [2] | effect of DPP IV inhibitor on degradation of GIP by plasma [2]
1 | CC[C@H](C)[C@H](NC(=O)[C@H](CO)NC(=O)[C@H](Cc1ccc(O)cc1)NC(=O)[C@H](CC(=O)O)NC(=O)[C@H](CO)NC(=O)[C@@H](NC(=O)[C@H](Cc1ccccc1)NC(=O)[C@@H](NC(=O)CNC(=O)[C@H](CCC(=O)O)NC(=O)CN(C)C(=O)[C@@H](N)Cc1ccc(O)cc1)[C@@H](C)O)[C@@H](C)CC)C(=O)N[C@@H](C)C(=O)N[C@@H](CCSC)C(=O)N[C@@H](CC(=O)O)C(=O)N[C@@H](CCCCN)C(=O)N[C@H](C(=O)N[C@@H](Cc1c[nH]cn1)C(=O)N[C@@H](CCC(N)=O)C(=O)N[C@@H](CCC(N)=O)C(=O)N[C@@H](CC(=O)O)C(=O)N[C@@H](Cc1ccccc1)C(=O)N[C@H](C(=O)N[C@@H](CC(N)=O)C(=O)N[C@@H](Cc1c[nH]c2ccccc12)C(=O)N[C@@H](CC(C)C)C(=O)N[C@@H](CC(C)C)C(=O)N[C@@H](C)C(=O)N[C@@H](CCC(N)=O)C(=O)N[C@@H](CCCCN)C(=O)NCC(=O)N[C@@H](CCCCN)C(=O)N[C@@H](CCCCN)C(=O)N[C@@H](CC(N)=O)C(=O)N[C@@H](CC(=O)O)C(=O)N[C@@H](Cc1c[nH]c2ccccc12)C(=O)N[C@@H](CCCCN)C(=O)N[C@@H](Cc1c[nH]cn1)C(=O)N[C@@H](CC(N)=O)C(=O)N[C@H](C(=O)N[C@H](C(=O)N[C@@H](CCC(N)=O)C(=O)O)[C@@H](C)O)[C@@H](C)CC)C(C)C)[C@@H](C)CC [GIP (Sar^2)] | less resistant | 100% | 28 ± 2% | 8% | 0% | 0% | 100% | resistance to plasma degradation | 28 ± 2% | 8% | 0% | 0% | 100% | complex pattern of responsiveness dependent on glucose concentration and dose employed | – | –
2 | CC[C@H](NC(=O)[C@@H](N)Cc1ccc(O)cc1)C(=O)N[C@@H](CCC(=O)O)C(=O)NCC(=O)N[C@H](C(=O)N[C@@H](Cc1ccccc1)C(=O)N[C@H](C(=O)N[C@@H](CO)C(=O)N[C@@H](CC(=O)O)C(=O)N[C@@H](Cc1ccc(O)cc1)C(=O)N[C@@H](CO)C(=O)N[C@H](C(=O)N[C@@H](C)C(=O)N[C@@H](CCSC)C(=O)N[C@@H](CC(=O)O)C(=O)N[C@@H](CCCCN)C(=O)N[C@H](C(=O)N[C@@H](Cc1c[nH]cn1)C(=O)N[C@@H](CCC(N)=O)C(=O)N[C@@H](CCC(N)=O)C(=O)N[C@@H](CC(=O)O)C(=O)N[C@@H](Cc1ccccc1)C(=O)N[C@H](C(=O)N[C@@H](CC(N)=O)C(=O)N[C@@H](Cc1c[nH]c2ccccc12)C(=O)N[C@@H](CC(C)C)C(=O)N[C@@H](CC(C)C)C(=O)N[C@@H](C)C(=O)N[C@@H](CCC(N)=O)C(=O)N[C@@H](CCCCN)C(=O)NCC(=O)N[C@@H](CCCCN)C(=O)N[C@@H](CCCCN)C(=O)N[C@@H](CC(N)=O)C(=O)N[C@@H](CC(=O)O)C(=O)N[C@@H](Cc1c[nH]c2ccccc12)C(=O)N[C@@H](CCCCN)C(=O)N[C@@H](Cc1c[nH]cn1)C(=O)N[C@@H](CC(N)=O)C(=O)N[C@H](C(=O)N[C@H](C(=O)N[C@@H](CCC(N)=O)C(=O)O)[C@@H](C)O)[C@@H](C)CC)C(C)C)[C@@H](C)CC)[C@@H](C)CC)[C@@H](C)CC)[C@@H](C)O [GIP (Abu^2)] | more resistant than native GIP | 100% | 38 ± 1% | 28 ± 2% | 0% | 0% | 100% | – | 38 ± 1% | 28 ± 2% | 0% | 0% | 100% | complex pattern of responsiveness dependent on glucose concentration and dose employed | complete abolition of degradation | –
3 | YSEGTFISDYSIAMDKIHQQDFVNWLLAQKGKKNDWKHNITQ-OH [GIP (Ser^2)] | more resistant than native GIP | 100% | 77 ± 2% | 60 ± 1% | 32 ± 4% | 0% | 100% | – | 77 ± 2% | 60 ± 1% | 32 ± 4% | 0% | 63 ± 3% | strong response | complete abolition of degradation | –
4 | CC[C@H](C)[C@H](NC(=O)[C@H](CO)NC(=O)[C@H](Cc1ccc(O)cc1)NC(=O)[C@H](CC(=O)O)NC(=O)[C@H](CO)NC(=O)[C@@H](NC(=O)[C@H](Cc1ccccc1)NC(=O)[C@@H](NC(=O)CNC(=O)[C@H](CCC(=O)O)NC(=O)[C@H](C)NC(=O)[C@H](Cc1ccc(O)cc1)NC(C)=O)[C@@H](C)O)[C@@H](C)CC)C(=O)N[C@@H](C)C(=O)N[C@@H](CCSC)C(=O)N[C@@H](CC(=O)O)C(=O)N[C@@H](CCCCN)C(=O)N[C@H](C(=O)N[C@@H](Cc1c[nH]cn1)C(=O)N[C@@H](CCC(N)=O)C(=O)N[C@@H](CCC(N)=O)C(=O)N[C@@H](CC(=O)O)C(=O)N[C@@H](Cc1ccccc1)C(=O)N[C@H](C(=O)N[C@@H](CC(N)=O)C(=O)N[C@@H](Cc1c[nH]c2ccccc12)C(=O)N[C@@H](CC(C)C)C(=O)N[C@@H](CC(C)C)C(=O)N[C@@H](C)C(=O)N[C@@H](CCC(N)=O)C(=O)N[C@@H](CCCCN)C(=O)NCC(=O)N[C@@H](CCCCN)C(=O)N[C@@H](CCCCN)C(=O)N[C@@H](CC(N)=O)C(=O)N[C@@H](CC(=O)O)C(=O)N[C@@H](Cc1c[nH]c2ccccc12)C(=O)N[C@@H](CCCCN)C(=O)N[C@@H](Cc1c[nH]cn1)C(=O)N[C@@H](CC(N)=O)C(=O)N[C@H](C(=O)N[C@H](C(=O)N[C@@H](CCC(N)=O)C(=O)O)[C@@H](C)O)[C@@H](C)CC)C(C)C)[C@@H](C)CC [N-Acetyl-GIP] | more resistant than native GIP | 100% | 100% | 100% | 100% | – | – | – | – | – | – | – | – | – | – | –
5 | Ile-Pro-Ile [diprotin A, reference compound] | – | – | – | – | – | – | – | – | – | – | – | – | – | – | – | completely inhibited degradation of the peptide by plasma
